Patent publication EP1849783A1, “Octahydropentalene-substituted pyrazoline compounds, their preparation and use as medicaments” (LABORATORIOS DEL DR. ESTEVE, S.A., priority 2006, dated 2007)
Structures can show the parent of a compound that is named as a salt.

Key:
[1] = target: T1, transfected human CB1 receptors (Homo sapiens, UniProt P21554); assay: in-vitro determination of affinity to CB1-Receptor (radioligand binding); settings: transfected human CB1 receptors of Receptor Biology, Inc.; radioligand [^3H]-CP55940; read-out: CB1-Receptor Radiologand :[^3H]-CP55940 IC50
T1 construct: purchased Receptor Biology, Inc
Method: The in-vitro determination of the affinity of the inventive quaternary ammonium salts of substituted pyrazoline compounds to CB1/CB2-Rezeptors is carried out as described in the publication of Ruth A. Ross, Heather C. Brockie et al., "Agonist-inverse agonist characterization at CB1 and CB2 cannabinoid receptors of L-759633, L759656 and AM630", British Journal of Pharmacology, 126, 665-672, (1999), whereby the transfected human CB1 and CB2 receptors of Receptor Biology, Inc. are used. The radioligand used for both receptors is [^3H]-CP55940. The respective parts of the description are hereby incorporated by reference and forms part of the present disclosure.

[2] = tested on: cannabinoid receptors; assay: Mouse tetrad model, antagonistic activity against Win 55212-2; type: in vivo, Male NMRI mice; settings: against Win 55212-2 (1.25 mg/kg intravenous), substance injected 5 minutes before the agonist, mice
Description: Substances with affinity for cannabinoid receptors are known to produce a wide range of pharmacological effects. It is also known that intravenous administration of a substance with affinity for cannabinoid receptors in mice produces analgesia , hypothermia, sedation and catalepsy. Individually, none of these effects can be considered as proof that a tested substance has affinity for cannabinoid-receptors, since all of these effects are common for various classes of centrally active agents. However, substances, which show all of these effects, i.e. substances that are active in this so-called tetrad model are considered to have affinity for the cannabinoid receptors. It has further been shown that cannabinoid receptor antagonists are higly effective in blocking the effects of a cannabinoid agonist in the mouse tetrad model.
The tetrad model is described, for example, in the publication of A. C. Howlett et al, International Union of Pharmacology XXVII. Classification of Cannabinoid Receptors, Pharmacol Rev 54, 161-202, 2002 and David R. Compton et al., "In-vivo Characterization of a Specific Cannabinoid Receptor Antagonist (SR141716A) Inhibition of Tetrahydrocannbinol- induced Responses and Apparent Agonist Activity", J. Pharmacol. Exp. Ther. 277 , 2, 586-594, 1996. The corresponding parts of the description are hereby incorporated by reference. […]
Before testing in the behavioral procedures given below, mice are acclimatized to the experimental setting. Pre-Treatment control values are determined for analgesia hot plate latency (in seconds), rectal temperature, sedation and catalepsy.
In order to determine the agonistic activty of the substance to be tested, the mice are injected intravenously with the substance to be tested or the vehicle alone. 15 minutes after injection, latency in hot plate analgesia is measured. Rectal temperature, sedation and catalepsy are measured 20 minutes after injection.
In order to determine the antagonistic activity the identical procedure is used as for the determination of the agonistic effects, but with the difference that the substance to be evaluated for its antagonistic activity is injectected 5 minutes before the intravenous injection of 1.25 mg/kg Win-55,212 a known cannabinoid-receptor agonist.
The hot plate analgesia is determined according to the method described in Woolfe D. et al. "The evaluation of analgesic action of pethidine hydrochloride (Demerol)", J. Pharmacol. Exp. Ther. 80, 300-307,1944. […]
The mice are placed on a hot plate (Harvard Analgesimeter) at 55 ± 0.5 °C until they show a painful sensation by licking their paws or jumping and the time for these sensations to occur is recorded. This reading is considered the basal value (B). […]

T1 sequence (P21554 whole entry): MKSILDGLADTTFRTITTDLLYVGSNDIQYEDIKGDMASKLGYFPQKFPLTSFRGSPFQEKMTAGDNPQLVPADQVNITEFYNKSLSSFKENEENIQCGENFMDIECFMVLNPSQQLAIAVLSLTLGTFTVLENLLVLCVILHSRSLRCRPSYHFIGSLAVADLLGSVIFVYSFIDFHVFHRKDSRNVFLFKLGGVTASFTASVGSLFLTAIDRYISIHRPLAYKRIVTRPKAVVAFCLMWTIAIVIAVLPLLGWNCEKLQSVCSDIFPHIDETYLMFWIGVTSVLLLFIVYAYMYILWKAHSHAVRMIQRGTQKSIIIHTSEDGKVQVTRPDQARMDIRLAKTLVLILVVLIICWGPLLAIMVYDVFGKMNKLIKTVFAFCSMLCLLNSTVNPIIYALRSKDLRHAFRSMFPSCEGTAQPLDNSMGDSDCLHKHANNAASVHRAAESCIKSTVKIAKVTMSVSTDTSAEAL

Structure (SMILES) | IC50 [1] [nM] | Antagonistic Effect in (%) ([2]; 1.25 mg/kg) | Antagonistic Effect in (%) [2] [%]
O=C(NN1CC2CCCC2C1)C1=NN(c2ccc(Cl)cc2Cl)C(c2ccc(Cl)cc2)C1 (stereo not shown) [1 (HCl)] | 70.8 | 117 ± 3 | 
O=C(NN1CC2CCCC2C1)C1=NN(c2ccc(Cl)cc2Cl)C(c2ccc(Cl)cc2)C1 (stereo not shown) [Example 1, 5-(4-chlorophenyl)-1-(2,4-dichlorophenyl)-N-(hexahydrocyclopenta[c]pyrrol-2(1H)-yl)-4,5-dihydro-1H-pyrazole-3-carboxamide] | 12.6 | 122 ± 4 | 
O=C(NN1CC2CCCC2C1)C1=NN(c2ccc(Cl)cc2Cl)[C@@H](c2ccc(Cl)cc2)C1 (stereo partly drawn) [Example 2, (R)-5-(4-chlorophenyl)-1-(2,4-dichlorophenyl)-N-(hexahydrocyclopenta[c]pyrrol-2(1H)-yl)-4,5-dihydro-1H-pyrazole-3-carboxamide] | 15.8 |  | 125.9
O=C(NN1CC2CCCC2C1)C1=NN(c2ccc(Cl)cc2Cl)C(c2ccc(Br)cc2)C1 (stereo not shown) [Example 4, 5-(4-bromophenyl)-1-(2,4-dichlorophenyl)-N-(hexahydrocyclopenta[c]pyrrol-2(1H)-yl)-4,5-dihydro-1H-pyrazole-3-carboxamide] |  |  | 121 ± 4
